Results from patent publication US20260325617A1, “INKT Cell Modulator Liposomal Compositions and Methods of Use” (priority 2023, published 2026).
Where “and” joins values, the source holds several entries; their conditions need not be identical. Equal entries are not always repeated. Where two headings read alike, the source gives them in different places.

What was measured:
[1] = Mouse pharmacokinetics of IMM60 after i.v. liposomal or soluble IMM60 (Example 7); assay type: in vivo, mouse (C57BL/6 and CD1)
Experimental: The two strains of mice that were compared were CD1 mice (not to be confused with CD1d-KO mice) and C57BL/mice. The half-life, volume of distribution, clearance, AUC, and Cmax were calculated using the one-compartmental model with first-order kinetics.
Lipid formulation: DSPG:DSPC:IMM60 (3.44:4.37:1 mg/ml) in a 250 mM sucrose, 145 mM NaCl, 10 mM sodium phosphate, pH 6.5 buffer. Before use, Vials of liposomal IMM60 were thawed at room temperature (21° C.-22° C.), then heated to 55° C. for 10 minutes using a heated water bath. Vials were mixed by inversion six times, cooled to room temperature, and diluted to either 100 ng/ml or 10,000 ng/ml using injection grade saline (0.9% NaCl).
Soluble IMM60: Lyophilized material was resuspended in Chloroform:methanol:water (10:10:3) to 10 mg/ml (vials of 100 μg in 10 μl) swirled around to capture all the material and then Vehicle solution (150 mM NaCl, 0.5% Tween20 in distilled water) added quickly to a final concentration of 100 μg/ml (for 100 μg in 10 μl, added 990 μl of Vehicle), then then heated to 80-90° C. for 5 minutes, and sonicated with a waterbath sonicator for 5 minutes. Samples were diluted to 10,000 ng/ml using injection grade saline.
Mice were warmed up for 20-30 minutes in cages place in a 37° C. heating chamber. Mice within each group were injected intravenously, using 27G insulin syringe needles, with 100 μl (C57BL/mice) or 150 μl (CD-1 mice) of the recorded dose over approximately 4 seconds.
Plasma samples were analyzed by LC/MS/MS at Frontage Laboratories. […] The method uses alpha GalCer (analog to IMM60) as an internal standard and the mass spectroctoscopic ionization is electrospray in the positive ionization mode. The range of calibration standards is between 1 ng/mL to 1000 ng/mL IMM60 in mouse plasma.
Plasma concentrations were measured 10 and 180 minutes after IV administration. The half-life, clearance, and AUC(0-∞) were calculated using the one-compartmental model with first-order kinetics since only two time points were samples along the PK profile. Using these assumptions allow for the calculation of PK parameters. Other assumption is that the T10 minutes is substituted for T0 and C10 minutes is substituted for C0 and Cmax to solve for PK parameters of liposomal IMM60.
Statistical Calculations: the mean, standard deviation (SD), standard error of the mean (SE), p-value from the t-test (equal or unequal variances) was calculated using Microsoft Excel 201 (Microsoft Corporation). Equal or unequal variances were chosen based on use of the F-test function. All t-test comparisons were performed with the 1000 ng IMM60 in liposome form as the control. Half-life T(1/2) in Mouse of IMM60: The half-life for mice of IMM60 is calculated using Equation 1 using the one-compartment model with 1st order kinetics.

[2] = test system: iNKT cells / immune cells; assay: PD-1 / PD-L1 upregulation on immune cells by soluble IMM60
[3] = individual mouse, C57BL/6, 1000 ng i.v., listed as IMM60 soluble
[4] = individual mouse, CD1, 1500 ng i.v., listed as IMM60 soluble

With CCCCCCCCCCCCCCCCCCCCCCCCCC(=O)N[C@@H](CO[C@H]1CC[C@H](O)[C@H](O)[C@H]1O)[C@H](O)[C@H](O)CCCCCCCCCCCCCC [soluble IMM60] the Cmax ([1]; individual mouse, C57BL/6, 1000 ng i.v., 10 min, listed as IMM60 soluble) was 87.7 ng/mL, the “AUC(0-∞)” value [1, 3] was 12,418 ng/ml/min and the Vd [1, 3] was 0.0114 L. The half-life [1, 3] was 1.636 h, the Cmax ([1]; individual mouse, CD1, 1500 ng i.v., 10 min, listed as IMM60 soluble) was 105.0 ng/mL and the “AUC(0-∞)” value [1, 4] was 17,976 ng/ml/min. For the same compound, the Vd [1, 4] was 0.01429 L, the half-life [1, 4] was 1.9773 h and the “Half-life and volume of distribution vs liposomal” value ([1]; mice) was “longer half-life and larger volume of distribution”. It also gave an AUC(0-inf) ([1]; mouse, plasma, iv, 0.001 mg, average, C57BL/6, 1000 ng i.v.) of 204 ng·h/mL, a Cmax at 10 min ([1]; mouse, plasma, iv, 0.001 mg, average, C57BL/6, 1000 ng i.v., 10 min) of 89.7 ng/mL and a clearance ([1]; mouse, plasma, iv, 0.001 mg, average, C57BL/6, 1000 ng i.v., read-out: Clearance) of 0.08 mL/min. For the same compound, the half-life ([1]; mouse, plasma, iv, 0.001 mg, average, C57BL/6, 1000 ng i.v., read-out: Half-life) was 1.58 h, the Vd ([1]; mouse, plasma, iv, 0.001 mg, average, C57BL/6, 1000 ng i.v., read-out: Vd) was 0.0112 L and the AUC(0-inf) ([1]; mouse, plasma, iv, 0.001 mg, individual mouse, C57BL/6, 1000 ng i.v.) was 201 ng·h/mL. The Cmax at 10 min ([1]; mouse, plasma, iv, 0.001 mg, individual mouse, C57BL/6, 1000 ng i.v., 10 min) was 91.7 ng/mL, the clearance ([1]; mouse, plasma, iv, 0.001 mg, individual mouse, C57BL/6, 1000 ng i.v., read-out: Clearance) was 0.08 mL/min and the half-life ([1]; mouse, plasma, iv, 0.001 mg, individual mouse, C57BL/6, 1000 ng i.v., read-out: Half-life) was 1.52 h. It also gave a Vd ([1]; mouse, plasma, iv, 0.001 mg, individual mouse, C57BL/6, 1000 ng i.v., read-out: Vd) of 0.0109 L, an AUC(0-inf) ([1]; mouse, plasma, iv, 0.0015 mg, average, CD1, 1500 ng i.v.) of 269 ng·h/mL and a Cmax at 10 min ([1]; mouse, plasma, iv, 0.0015 mg, average, CD1, 1500 ng i.v., 10 min) of 83.7 ng/mL. It also gave a clearance ([1]; mouse, plasma, iv, 0.0015 mg, average, CD1, 1500 ng i.v., read-out: Clearance) of 0.09 mL/min, a half-life ([1]; mouse, plasma, iv, 0.0015 mg, average, CD1, 1500 ng i.v., read-out: Half-life) of 2.32 h and a Vd ([1]; mouse, plasma, iv, 0.0015 mg, average, CD1, 1500 ng i.v., read-out: Vd) of 0.0192 L. The AUC(0-inf) ([1]; mouse, plasma, iv, 0.0015 mg, individual mouse, CD1, 1500 ng i.v.) was 239 ng·h/mL, the Cmax at 10 min ([1]; mouse, plasma, iv, 0.0015 mg, individual mouse, CD1, 1500 ng i.v., 10 min) was 62.4 ng/mL and the clearance ([1]; mouse, plasma, iv, 0.0015 mg, individual mouse, CD1, 1500 ng i.v., read-out: Clearance) was 0.1 mL/min. For the same compound, the half-life ([1]; mouse, plasma, iv, 0.0015 mg, individual mouse, CD1, 1500 ng i.v., read-out: Half-life) was 2.66 h, the Vd ([1]; mouse, plasma, iv, 0.0015 mg, individual mouse, CD1, 1500 ng i.v., read-out: Vd) was 0.024 L and the AUC(0-inf) ([1]; mouse, plasma, iv, 0.05 mg/kg, C57BL and CD1 strains, high dose) was 204 to 269 ng·h/mL. For the same compound, the clearance ([1]; mouse, plasma, iv, 0.05 mg/kg, C57BL and CD1 strains, high dose, read-out: Clearance) was 3.1 to 4.1 mL/min/kg, the Cmax ([1]; mouse, plasma, iv, 0.05 mg/kg, C57BL and CD1 strains, high dose, read-out: Cmax) was 84 to 90 ng/mL and the half-life ([1]; mouse, plasma, iv, 0.05 mg/kg, C57BL and CD1 strains, high dose, read-out: Half life T1/2) was 1.58 to 2.32 h. The Vd ([1]; mouse, plasma, iv, 0.05 mg/kg, C57BL and CD1 strains, high dose, read-out: Volume of distribution Vd) was 0.558 to 0.639 L/kg, the AUC(0-inf) ([1]; mouse, plasma, iv, 0.05 mg/kg, mean ± SE, 1000 ng (50 μg/kg) i.v.) was 204 ng·h/mL and the clearance ([1]; mouse, plasma, iv, 0.05 mg/kg, mean ± SE, 1000 ng (50 μg/kg) i.v., read-out: Cl) was 0.08 mL/min and 4.09 mL/min/kg. The Cmax ([1]; mouse, plasma, iv, 0.05 mg/kg, mean ± SE, 1000 ng (50 μg/kg) i.v., read-out: Cmax) was 90 ± 2 ng/mL, the Vd ([1]; mouse, plasma, iv, 0.05 mg/kg, mean ± SE, 1000 ng (50 μg/kg) i.v., read-out: Vd) was 0.558 ± 0.012 L/kg and the half-life ([1]; mouse, plasma, iv, 0.05 mg/kg, mean ± SE, 1000 ng (50 μg/kg) i.v., read-out: t1/2) was 1.57 ± 0.06 h. For the same compound, the AUC(0-inf) ([1]; mouse, plasma, iv, 0.05 mg/kg, mean ± SE, 1500 ng (50 μg/kg) i.v.) was 269 ng·h/mL, the clearance ([1]; mouse, plasma, iv, 0.05 mg/kg, mean ± SE, 1500 ng (50 μg/kg) i.v., read-out: Cl) was 0.09 mL/min and 3.13 mL/min/kg and the Cmax ([1]; mouse, plasma, iv, 0.05 mg/kg, mean ± SE, 1500 ng (50 μg/kg) i.v., read-out: Cmax) was 84 ± 21 ng/mL. The Vd ([1]; mouse, plasma, iv, 0.05 mg/kg, mean ± SE, 1500 ng (50 μg/kg) i.v., read-out: Vd) was 0.639 ± 0.163 L/kg, the half-life ([1]; mouse, plasma, iv, 0.05 mg/kg, mean ± SE, 1500 ng (50 μg/kg) i.v., read-out: t1/2) was 2.32 ± 0.34 h and the “PD-1 on iNKT cells” value [2] was “upregulate the levels of PD-1 on iNKT cells”. The “PD-L1 on a variety of immune cells” value [2] was “upregulates expression of PD-L1”.
